Results published in PubChem BioAssay (NCI).
Several values for one entry are separate records, joined by “and”; a condition that tells them apart may be missing. Equal entries are not always repeated.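 Cultured in 96-well plates, cells were exposed to test compound for 48 hours across five concentrations. GI50 = concentration required for 50% inhibition of growth. TGI is the concentration that stops growth completely.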

Columns and labels:
Assay in all cases: growth of human tumour cells (NCI), 48 h
UO-31 renal = test system: UO-31 renal
MDA-MB-435 = test system: MDA-MB-435
SR leukemia = test system: SR leukemia
CCRF-CEM leukemia = test system: CCRF-CEM leukemia
HS 578T breast = test system: HS 578T breast
UACC-257 melanoma = test system: UACC-257 melanoma
SF-539 CNS = test system: SF-539 CNS
SW-620 colon = test system: SW-620 colon
RPMI-8226 leukemia = test system: RPMI-8226 leukemia
MCF7 breast = test system: MCF7 breast

SMILES	GI50 (UO-31 renal)	TGI (UO-31 renal)	GI50 (MDA-MB-435)	TGI (MDA-MB-435) [µM]	GI50 (SR leukemia)	TGI (SR leukemia)	GI50 (CCRF-CEM leukemia) [µM]	TGI (CCRF-CEM leukemia) [µM]	GI50 (HS 578T breast)	TGI (HS 578T breast)	GI50 (UACC-257 melanoma)	TGI (UACC-257 melanoma)	GI50 (SF-539 CNS)	TGI (SF-539 CNS)	GI50 (SW-620 colon)	TGI (SW-620 colon)	GI50 (RPMI-8226 leukemia)	TGI (RPMI-8226 leukemia) [µM]	GI50 (MCF7 breast) [µM]	TGI (MCF7 breast)
Cc1cc2c(C(N)=O)c(N)n(-c3c(C)ccc(O)c3C)c2nc1C	3.18 µM	14.9 µM	1.04 µM	3.33	2.47 µM	> 100 µM	2.65	> 100	1.44 µM	7.18 µM	3.13 µM	51.6 µM	0.434 µM	2.88 µM	3.17 µM	56.4 µM	3.48 µM	> 100	3.41	> 100 µM
CCCN(CCC)c1ccc(/C=N/NC(=O)c2cccnc2)c(OC)c1	17.4 µM	71.6 µM	10.3 µM	43	17.1 µM	59.6 µM	25.5	> 100	21.7 µM	99.3 µM	20.7 µM	67.6 µM	28.3 µM	> 100 µM	24.5 µM	> 100 µM	34.5 µM	> 100	19.1	89.1 µM
Cc1ccc(C(=O)/C(=C\c2ccc([N+](=O)[O-])cc2)S(=O)Cc2ccc(Cl)cc2)cc1 (centres undefined)	1.41 µM	2.78 µM	1.87 µM	4	1.13 µM	10.1 µM	0.635	> 100	2.48 µM	7.39 µM	1.89 µM	3.89 µM	1.85 µM	3.37 µM	1.59 µM	3.44 µM	1.29 µM	4.62	1.38	3.68 µM
CN(Cc1cc(Br)cc(Br)c1O)Cc1c(O)ccc2ccccc12		30.9 µM		40.3		55.6 µM		60.6		77.2 µM		37.5 µM		35.6 µM		> 100 µM		> 100		58.3 µM
CC(=[N-])N1CCC[C@@H](Nc2c3ccccc3nc3ccccc23)C1.[Cl][Pt].[NH-]CCC[NH-]	1.78 µM	9.21 µM	4.43 µM	18.4	0.445 µM	> 100 µM	1.58	> 100	3.33 µM	> 31.4 µM	2.49 µM	> 100 µM	2.53 µM	18.1 µM	0.268 µM	> 100 µM	2.42 µM	> 100	0.357	> 100 µM
N#Cc1cc(S(=O)(=O)Nc2nnc(-c3ccccc3)c(-c3ccccc3)n2)c(SCc2ccccc2)cc1Cl	26.8 µM	71.3 µM	21.2 µM	45.1	27.5 µM	> 100 µM	7.06	> 100	22.4 µM	63.3 µM	24.2 µM	46.4 µM	30.2 µM	62.4 µM	35.5 µM	> 100 µM	16.4 µM	51.9	31	> 100 µM
CCn1c(-c2nonc2N)nc2c(C#CC(C)(C)O)ncc(OC[C@H]3CCCNC3)c21	> 38.7 µM	> 100 µM	13.7 µM	30.3	12 µM	41.8 µM	0.335	47.2	2.58 µM	59.5 µM	20.8 µM	41.2 µM	0.313 µM	16.9 µM	11.1 µM	> 100 µM	17.4 µM	50.5	1.05	22.9 µM
CC1(N)CCN(c2cnc(-c3cccc(Cl)c3Cl)c(N)n2)CC1	3.3 µM	17.9 µM	28.3 µM	> 100	7.6 µM	80 µM	23.2	> 100	13.3 µM	64 µM	17 µM	35.2 µM	12.9 µM	31.5 µM	19.3 µM	> 100 µM	13.8 µM	40.1	17.2	37.2 µM
COc1cc2nccc(Oc3ccc(NC(=O)Nc4cc(C)on4)c(Cl)c3)c2cc1OC	1.88 µM and 2.5 µM	5.76 µM and > 10 µM	2.74 µM and 2.98 µM	> 59.6	2.62 µM and 3.86 µM	34.4 µM and > 10 µM	3.1	> 100	1.48 µM and 1.54 µM	5.78 µM and > 10 µM	3.73 µM and 5.54 µM	33.9 µM and > 10 µM	1.49 µM and 1.41 µM	4.05 µM and 4.74 µM	3.11 µM and 4.09 µM	18.4 µM and > 10 µM	9.83 µM and 4.33 µM	> 55.7	3.35	56.2 µM and > 10 µM
O=C1C=CC(=O)N1c1cccc(N2C(=O)C=CC2=O)c1	1.94 µM	4.11 µM	3.85 µM	16.2	3.07 µM	> 100 µM	2.27	7.65	2.17 µM	5.73 µM	1.65 µM	3.32 µM	1.84 µM	3.46 µM	1.99 µM	3.87 µM	2.94 µM	7.19	2.52	5.52 µM
CN(CC(=O)Nc1nc2ccccc2[nH]1)S(=O)(=O)c1ccc(Cl)cc1	> 100 µM	> 100 µM	> 100 µM	> 100	> 100 µM	> 100 µM	> 100	> 100	65 µM	> 100 µM	> 100 µM	> 100 µM	> 100 µM	> 100 µM	> 100 µM	> 100 µM	> 100 µM	> 100	> 100	> 100 µM
OCCNc1nc(Nc2ccc(Cl)c(Cl)c2)nc2ccccc12	4.23 µM	17.9 µM	7.1 µM	20.2	2.65 µM	9.67 µM	3.07	18.1	6.91 µM	25.2 µM	11.1 µM	23.1 µM	5.68 µM	20.6 µM	4.02 µM	16.2 µM	3.74 µM	22.1	1.96	14.6 µM
CCCCCCCCCCCCCCCCCCOCC(CCP(=O)(CP(=O)(O)O)Oc1ccccc1)OCCCCCCCCCCCCCCCCCC (centres undefined)				> 100		> 100 µM		> 100		> 100 µM		> 100 µM		> 100 µM		> 100 µM		> 100		> 100 µM
